Experimental data: paper PMC9145865, “Effects of Rare Phytocannabinoids on the Endocannabinoid System of Human Keratinocytes” (International Journal of Molecular Sciences, 2022)

Key:
[1] = test system: CB1; experiment: Western blot protein expression of CB1; assay type: cell-based, human; details: HaCaT cells, half-IC50 dose, 24 h, vs. control
Description: (§1) The HaCaT cells were seeded into 6-well plates at a density of 4 × 10^4 per well, incubated overnight and then treated with the selected pCBs (6.0 µM of CBG, 4.0 µM of CBC, 9.0 µM of THCV and 13.0 µM of CBGA) for 24 h. The cell pellets were collected and then lysed in an ice-cold lysis buffer (10 mM of EDTA, 50 mM of pH 7.4 Tris–HCl, 150 mM of sodium chloride, 1% Triton-X-100, 2 mM of phenylmethylsulfonyl fluoride, 2 mM of sodium orthovanadate, […] of leupeptin and […] of aprotinin). The amount of protein was determined using the Bio-Rad Protein assay (Bio-Rad Laboratories, Hemel Hempstead, UK). An equal amount of protein (60 µg) was loaded onto 10% sodium dodecyl sulfate–polyacrylamide gels and blotted onto polyvinylidene fluoride sheets (Amersham Biosciences, Piscataway, NJ, USA). The membranes were blocked with dried 5% non-fat milk for 1 h and then incubated with suitable primary antibodies. Detection was performed using Azure Biosystems c400 (Dublin, CA, USA). The membranes were stripped using the Restore Western Blot Stripping Buffer from Thermo Fisher Scientific (Waltham, MA, USA) for 30 min under agitation at room temperature, according to the manufacturer’s instructions. The primary antibodies (Table 6) that were used were obtained from the following sources: […]

[2] = test system: PPARγ; experiment: qRT-PCR gene expression of PPARγ; assay type: cell-based, human; details: HaCaT cells, half-IC50 dose, 24 h, vs. control
Description: (§2) The HaCaT cells were seeded into 6-well plates at a density of 4 × 10^4 per well, incubated overnight and then treated with the selected pCBs (CBG (6.0 µM), CBC (4.0 µM), THCV (9.0 µM) and CBGA (13.0 µM)) for 24 h. The cell pellets were collected and RT-PCR reactions were performed using the RevertAid H Minus First Strand cDNA Synthesis Kit. The relative abundance was assessed via RT quantitative PCR (RT-qPCR) using the SensiFAST SYBR Lo-ROX Kit in an Applied Biosystems 7500 Fast Real-Time PCR System (Life Technologies). To provide the precise quantification of the initial target in each PCR reaction, the amplification plot was examined, as well as the point of early log phase of the product accumulation, which was defined by assigning a fluorescence threshold above the background that was defined as the threshold cycle number or “Ct. Differences” in threshold cycle number that was used to quantify the relative amount of the PCR targets that were contained within each tube. After PCR, a dissociation curve (melting curve) was constructed in the range of 60 °C to 95 °C [62] to evaluate the specificity of the amplification products. The relative expression of the different amplicons was calculated using the delta–delta Ct (ΔΔCt) method and then converted into the relative expression ratio (2^−ΔΔCt) for statistical analysis. All data were normalized to the endogenous reference genes β-actin and glyceraldehyde-3-phosphate dehydrogenase. The specific primers (Table 5) that were used were designed and ordered from Integrated DNA Technologies (IDT; Coralville, IA, USA) with the following sequences: […]

[3] = test system: DAGLα; experiment: Western blot protein expression of DAGLα; assay type: cell-based, human; details: HaCaT cells, half-IC50 dose, 24 h, vs. control
Description: as §1

[4] = test system: MAGL; experiment: Western blot protein expression of MAGL; assay type: cell-based, human; details: HaCaT cells, half-IC50 dose, 24 h, vs. control
Description: as §1

[5] = test system: FAAH; experiment: qRT-PCR gene expression of FAAH; assay type: cell-based, human; details: HaCaT cells, half-IC50 dose, 24 h, vs. control
Description: (§3) The HaCaT cells were seeded into 6-well plates at a density of 4 × 10^4 per well, incubated overnight and then treated with the selected pCBs (CBG (6.0 µM), CBC (4.0 µM), THCV (9.0 µM) and CBGA (13.0 µM)) for 24 h. The cell pellets were collected and RT-PCR reactions were performed using the RevertAid H Minus First Strand cDNA Synthesis Kit. The relative abundance was assessed via RT quantitative PCR (RT-qPCR) using the SensiFAST SYBR Lo-ROX Kit in an Applied Biosystems 7500 Fast Real-Time PCR System (Life Technologies). To provide the precise quantification of the initial target in each PCR reaction, the amplification plot was examined, as well as the point of early log phase of the product accumulation, which was defined by assigning a fluorescence threshold above the background that was defined as the threshold cycle number or “Ct. Differences” in threshold cycle number that was used to quantify the relative amount of the PCR targets that were contained within each tube. After PCR, a dissociation curve (melting curve) was constructed in the range of 60 °C to 95 °C [62] to evaluate the specificity of the amplification products. The relative expression of the different amplicons was calculated using the delta–delta Ct (ΔΔCt) method and then converted into the relative expression ratio (2^−ΔΔCt) for statistical analysis. […]

[6] = test system: FAAH; experiment: Western blot protein expression of FAAH; assay type: cell-based, human; details: HaCaT cells, half-IC50 dose, 24 h, vs. control
Description: as §1

[7] = test system: NAPE-PLD; experiment: qRT-PCR gene expression of NAPE-PLD; assay type: cell-based, human; details: HaCaT cells, half-IC50 dose, 24 h, vs. control
Description: as §3

[8] = test system: CB2; experiment: qRT-PCR gene expression of CB2; assay type: cell-based, human; details: HaCaT cells, half-IC50 dose, 24 h, vs. control
Description: as §2

[9] = test system: CB1; experiment: qRT-PCR gene expression of CB1; assay type: cell-based, human; details: HaCaT cells, half-IC50 dose, 24 h, vs. control
Description: as §2

[10] = test system: skin; design: method as in PMID 35056807; details: applied topically; ref [59]; cited from earlier work
[11] = test system: MAGL; experiment: qRT-PCR gene expression of MAGL; assay type: cell-based, human; details: HaCaT cells, half-IC50 dose, 24 h, vs. control
Description: as §3

[12] = test system: transformed human keratinocytes; design: method as in PMID 17157480; details: hyperproliferative conditions; ref [46]; cited from earlier work
[13] = test system: PEA; experiment: Endogenous PEA content by UHPLC-MS/MS; assay type: cell-based, human; details: HaCaT cells, half-IC50 dose, 24 h, vs. control
Description: The HaCaT cells were seeded into 6-well plates at a density of 4 × 10^4 per well, incubated overnight and then treated with the selected pCBs (6.0 µM of CBG, 4.0 µM of CBC, 9.0 µM of THCV and 13.0 µM of CBGA) for 24 h. The analytical standards that were used were N-arachidonoylethanolamine (AEA), N-arachidonoylethanolamine-d8 (AEA-d8), 2-arachidonoylglicerol (2-AG), 2-arachidonoylglicerol-d8 (2-AG-d8), N-palmitoylethanolamine (PEA) and […] (PEA-d4). The lipid fraction from these cells was extracted using chloroform–methanol–water (2:1:1 v/v) in the presence of ISs (1 ng/mL^−1 of AEA-d8, 100 ng mL^−1 of 2-AG-d8 and 1 ng mL^−1 of PEA-d4). The organic phase was dried under gentle nitrogen stream and then subjected to a micro-solid phase extraction (µSPE) procedure for a rapid clean-up using OMIX C18 tips from Agilent Technologies (Santa Clara, CA, USA). All analyses were performed using a Nexera XR LC 20 AD UHPLC system (Shimadzu Scientific Instruments, USA) that was equipped with Kinetex XB-C18 1.7 µm 100 × 2.1 mm from Phenomenex (Torrance, CA, USA) (for the LC parameters, see Figure S5) and coupled with a 4500 Qtrap from Sciex (Toronto, ON, Canada) that was equipped with a Turbo V electrospray ionization (ESI) source (the MS/MS parameters are shown in Table S1). The levels of AEA, 2-AG and PEA were then calculated as pmoles per 10^6 cells, as reported in [60].

SMILES	CB1 protein expression (in words) [1]	Protein Expression CB1 [1]	Gene Expression PPARγ [2]	gene expression of PPARγ (in words) [2]	DAGLα protein expression (in words) [3]	Protein Expression DAGLα [3]	MAGL protein expression (in words) [4]	Protein Expression MAGL [4]	FAAH protein expression (in words) [6]	gene expression of CB2 (in words) [8]	Gene Expression CB1 [9]	gene expression of CB1 (in words) [9]	further results
CCCc1cc(O)c2c(c1)OC(C)(C)[C@@H]1CCC(C)=C[C@@H]21 [THCV, Δ^9-tetrahydrocannabivarin]	significantly reduced	↓+	↓++++	significantly reduced	increased	↑+++	increased	↑++++					
CCCCCc1cc(O)c(C/C=C(\C)CCC=C(C)C)c(O)c1C(=O)O [CBGA, cannabigerolic acid]	significantly reduced	↓++++			increased	NAPE-PLD ↑++++ FAAH ↑++++ DAGLα ↑++++ MAGL ↑++++	increased	NAPE-PLD ↑++++ FAAH ↑++++ DAGLα ↑++++ MAGL ↑++++	significantly increased				Gene Expression FAAH [5]: FAAH ↓+++; gene expression of FAAH (in words) [5]: significantly reduced; Protein Expression FAAH [6]: NAPE-PLD ↑++++ FAAH ↑++++ DAGLα ↑++++ MAGL ↑++++
CCCCCc1cc(O)c2c(c1)OC(C)(CCC=C(C)C)C=C2 (stereo not drawn) [CBC, cannabichromene]			↓++	reduced					significantly increased	significantly downregulated	↓++++	significantly downregulated	gene expression of NAPE-PLD (in words) [7]: significantly increased; Gene Expression CB2 [8]: ↓++
CCCCCc1cc(O)c(C/C=C(\C)CCC=C(C)C)c(O)c1 [CBG, cannabigerol]										significantly upregulate	↑++++	significantly upregulate	skin health after topical application [10]: reducing the appearance of redness and improving barrier function; gene expression of MAGL (in words) [11]: significantly increase; proliferation of transformed human keratinocytes [12]: inhibit the proliferation; endogenous PEA content [13]: markedly increased
